Drawing on US6215002A, “Pyrrolopyrrolone derivatives as inhibitors of neutrophil elastase” (priority 1996, dated 2001), this text covers IC50 for 26 molecules.

The target in this experiment is T1, human neutrophil elastase (Homo sapiens, UniProt P08246).
T1 sequence (P08246 30-267): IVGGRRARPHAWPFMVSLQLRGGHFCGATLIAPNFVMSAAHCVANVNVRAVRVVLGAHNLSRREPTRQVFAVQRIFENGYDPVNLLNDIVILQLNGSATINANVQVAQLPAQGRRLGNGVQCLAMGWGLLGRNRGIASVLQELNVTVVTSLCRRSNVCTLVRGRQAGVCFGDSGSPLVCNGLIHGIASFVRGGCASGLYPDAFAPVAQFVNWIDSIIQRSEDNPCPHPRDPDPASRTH
The experiment is described as follows: In vitro assay of human neutrophil elastase (HNE). The format is biochemical. As to conditions: 118 nM purified human neutrophil elastase, pH 8.6, 15 min incubation at 30° C., MeO-succinyl-alanyl-alanyl-prolyl-valyl-p-nitroanilide substrate; read-out: HNE IC50. The essentials:
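Residual activity was taken as the 10 min rate of absorbance rise at 405 nm after adding 0.6 mM MeO-succinyl-AAPV-p-nitroanilide. Curve fitting of activity against concentration gave IC50.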

Where a name gives a salt, the structure may show the parent alone.

With `C=CC[C@H]1C(=O)N(S(=O)(=O)Cc2ccccc2)[C@H]2CCN(C(=O)OCc3ccccc3)[C@H]12` (relative stereo) [Example 21, rel-3aS,6R,6aR)-6-Allyl-5-oxo-4-phenylmethanesylfonyl-hexahydro-pyrrolo[3,2-b]pyrrole-1-carboxylic acid benzyl ester], the half-inhibitory concentration (IC50) came to 491 nM.
On to `CC(C)[C@H]1C(=O)N(S(C)(=O)=O)[C@H]2CCN(C(=O)CCCC3CCNCC3)[C@H]12` (relative stereo) [Example 255, rel-(3R,3aR,6aS)-3-Isopropyl-1-methanesulfonyl-4-(4-piperidin-4-yl-butyryl)-hexahydro-pyrrolo[3,2-b]pyrrol-2-one hydrochloride], for which the IC50 was determined as 144 nM.
As for `CCC[C@H]1C(=O)N(S(C)(=O)=O)[C@H]2CCN(C(=O)CCCCCCCCCN3CCOCC3)[C@H]12` (relative stereo) [Example 64, rel-(3R,3aR,6aS)-1-Methanesulfonyl-4-(10-morpholin-4-yl-decanoyl)-3-propyl-hexahydro-pyrrolo[3,2-b]pyrrol-2-one DL-tartrate], the IC50 stood at 26 nM.
Next, `CC(C)[C@H]1C(=O)N(S(C)(=O)=O)[C@H]2CCN(S(=O)(=O)c3ccc([N+](=O)[O-])cc3)[C@H]12` (relative stereo) [Example 229, rel-(3R,3aR,6aS)-3-Isopropyl-1-methanesulfonyl-4-(4-nitro-benzenesulfonyl)-hexahydro-pyrrolo[3,2-b]pyrrol-2-one]: 167 nM; `CCC[C@H]1C(=O)N(S(C)(=O)=O)[C@H]2CCN(C(=O)Cn3ccc(=O)cc3)[C@H]12` (relative stereo) [Example 113, rel-(3R,3aR,6aS)-1-Methanesulfonyl-4-[(4-oxo-4H-pyridin-1-yl)-acetyl]-3-propyl-hexahydro-pyrrolo[3,2-b]pyrrol-2-one]: 304 nM.
With `CCC[C@H]1C(=O)N(S(C)(=O)=O)[C@H]2CCN(S(=O)(=O)c3ccc(C(=O)NC)cc3)[C@H]12` (relative stereo) [Example 124, rel-(3aS,6R,6aR)-4-(4-Methanesulfonyl-5-oxo-6-hexahydro-pyrrolo[3,2-b]pyrrole-1-sulfonyl)-N-methyl-benzamide] the figure was 8 nM; with `CCC[C@H]1C(=O)N(S(C)(=O)=O)[C@H]2CCN(S(=O)(=O)c3ccccc3N)[C@H]12` (relative stereo) [Example 236, rel-(3R,3aR,6aS)-4-(2-Amino-benzenesulfonyl)-1-methanesulfonyl-3-propyl-hexahydro-pyrrolo[3,2-b]pyrrol-2-one], 18 nM; with `CCC[C@H]1C(=O)N(S(C)(=O)=O)[C@H]2CCN(C(=O)CNC(C)=O)[C@H]12` (relative stereo) [Example 114, rel-N-[2-(4-Methanesulfonyl-5-oxo-6R-propyl-hexahydro-(3aS,6aR)-pyrrolo[3,2-b]pyrrol-1-yl)-2-oxo-ethyl]-acetamide], 42 nM.
With `CCC[C@H]1C(=O)N(S(=O)(=O)CCC)[C@H]2CCN(C(=O)CCN3CCCCC3)[C@H]12` (relative stereo) [Example 162, rel-(3R,3aR,6aS)-4-(3-Piperidin-1-yl-propionyl)-1-(propane-1-sulfonyl)-3-propyl-hexahydro-pyrrolo[3,2-b]pyrrol-2-one DL-tartrate] the figure was 62 nM; with `CCC[C@H]1C(=O)N(S(C)(=O)=O)[C@H]2CCN(S(=O)(=O)c3ccc(C(=O)NC4CC4)cc3)[C@H]12` (relative stereo) [Example 125, rel-N-Cyclopropyl-4-(4-methanesulfonyl-5-oxo-6R-propyl-hexahydro-(3aS,6aR)-pyrrolo[3,2-b]pyrrole-1-sulfonyl)-benzamide], 13 nM.
On to `CCC[C@H]1C(=O)N(S(C)(=O)=O)[C@H]2CCN(C(=O)CCN3CCN(C)CC3)[C@H]12` (relative stereo) [Example 94, rel-(3R,3aR,6aS)-1-Methanesulfonyl-4-[3-(4-methyl-piperazin-1-yl)-propionyl]-3-propyl-hexahydro-pyrrolo[3,2-b]pyrrol-2-one dihydrochloride], for which the IC50 amounted to 81 nM.
As for `CCC[C@H]1C(=O)N(S(C)(=O)=O)[C@H]2CCN(C(=O)c3ccc[nH]3)[C@H]12` (relative stereo) [Example 242, rel-(3R,3aR,6aS)-1-Methanesulfonyl-3-propyl-4-(1H-pyrrole-2-carbonyl)-hexahydro-pyrrolo[3,2-b]pyrrol-2-one], the half-inhibitory concentration (IC50) worked out at 22 nM.
Next, `CCCCOc1ccc(S(=O)(=O)N2CC[C@H]3[C@H]2[C@@H](C(C)C)C(=O)N3S(C)(=O)=O)cc1` (relative stereo) [Example 230, rel-(3R,3aR,6aS)-4-(4-Butoxy-benzenesulfonyl)-3-isopropyl-1-methanesulfonyl-hexahydro-pyrrolo[3,2-b]pyrrol-2-one]: 92 nM.
With `CCC[C@H]1C(=O)N(S(C)(=O)=O)[C@H]2CCN(C(=O)c3ccc(S(C)(=O)=O)cc3)[C@H]12` (relative stereo) [Example 245, rel-(3R,3aR,6aS)-1-Methanesulfonyl-4-(4-methanesulfonyl-benzoyl)-3-propyl-hexahydro-pyrrolo[3,2-b]pyrrol-2-one], the IC50 came out at 9 nM.
As to `CCC[C@H]1C(=O)N(S(C)(=O)=O)[C@H]2CCN(C(=O)CCCCCN3CCCCCC3)[C@H]12` [Example 115, (3R,3aR,6aS)-4-(6-Azepin-1-yl-hexanoyl)-1-methanesulfonyl-3-propyl-hexahydro-pyrrolo[3,2-b]pyrrol-2-one hydrochloride], the IC50 amounted to 314 nM.
For the molecule `CCC[C@H]1C(=O)N(S(C)(=O)=O)[C@H]2CCN(C(=O)CN)[C@H]12` (relative stereo) [Example 109, rel-(3R,3aR,6aS)-4-Aminoacetyl-1-methanesulfonyl-3-propyl-hexahydro-pyrrolo[3,2-b]pyrrol-2-one trifluoroacetate], the IC50 came out at 96 nM.
As to `CCC[C@H]1C(=O)N(S(=O)(=O)c2ccc3ccccc3c2)[C@H]2CCN(S(=O)(=O)Cc3cccc(-c4nnn[nH]4)c3)[C@H]12` (relative stereo) [Example 23, rel-(3R,3aR,6aS)-1(Naphthalene-2-sulfonyl)-3-propyl-4-[3-(1H-tetrazol-5-yl)-phenylmethanesulfonyl]-hexahydro-pyrrolo[3,2-b]pyrrole-2-one], the IC50 is 75 nM.
As to `CC[C@H]1C(=O)N(S(=O)(=O)c2ccc3ccccc3c2)[C@H]2CCN(C(=O)CCN3CCCCC3)[C@H]12` (relative stereo) [Example 5, rel-(3R,3aR,6aS)-3-Ethyl-1-(naphthalene-2-sulfonyl)-4-(3-piperidin-1-yl-propionyl)-hexahydro-pyrrolo[3,2-b]pyrrol-2-one hydrochloride], the IC50 was 205 nM.
In the case of `CCC[C@H]1C(=O)N(S(C)(=O)=O)[C@H]2CCN(S(=O)(=O)CCCN3CCOCC3)[C@H]12` (relative stereo) [Example 8, rel-(3R,3aR,6aS)-1-Methanesulfonyl-4-(3-morpholin-4-yl-propane-1-sulfonyl)-3-propyl-hexahydro-pyrrolo[3,2-b]pyrrol-2-one], the IC50 stood at 29 nM.
For the molecule `CCC[C@H]1C(=O)N(S(=O)(=O)c2cccs2)[C@H]2CCN(C(=O)CCCCCN3CCCCC3)[C@H]12` (relative stereo) [Example 169, rel-(3R,3aR,6aS)-4-(6-Piperidin-1-yl-hexanoyl)-3-propyl-1-(thiophene-2-sulfonyl)-hexahydro-pyrrolo[3,2-b]pyrrol-2-one DL-tartrate], the IC50 was 29 nM.
With `CCC[C@H]1C(=O)N(S(C)(=O)=O)[C@H]2CCN(S(=O)(=O)c3ccc(N4CCCC4=O)cc3)[C@H]12` (relative stereo) [Example 212, rel-(3R,3aR,6aS)-1-Methanesulfonyl-4-[4-(2-oxo-pyrrolidin-1yl)-benzenesufonyl]-3-propyl-hexahydro-pyrrolo[3,2-b]pyrrol-2-one] the figure was 30 nM; with `CC(C)[C@H]1C(=O)N(S(C)(=O)=O)[C@H]2CCN(S(=O)(=O)c3ccc(CN4CCCCC4)cc3)[C@H]12` (relative stereo) [Example 198, rel-(3R,3aR,6aS)-3-Isopropyl-1-methanesulfonyl-(4-piperidin-1-ylmethyl-benzenesulfonyl)-hexahydro-pyrrolo[3,2-b]pyrrol-2-one hydrochloride], 127 nM.
For the molecule `CCC[C@H]1C(=O)N(S(C)(=O)=O)[C@H]2CCN(C(=O)c3cccs3)[C@H]12` (relative stereo) [Example 232, rel-(3R,3aR,6aS)-1-Methanesulfonyl-3-propyl-4-(thiophene-2-carbonyl)-hexahydro-pyrrolo[3,2-b]pyrrol-2-one], the IC50 came to 78 nM.
As to `CCC[C@H]1C(=O)N(S(C)(=O)=O)[C@H]2CCN(S(=O)(=O)c3ccc(C(F)(F)F)cc3)[C@H]12` (relative stereo) [Example 216, rel-(3R,3aR,6aS)-1-Methanesulfonyl-3-propyl-4-(4-trifluoromethyl-benzenesulfonyl)-hexahydro-pyrrolo[3,2-b]pyrrol-2-one], the IC50 came out at 87 nM.
For the molecule `CCC[C@H]1C(=O)N(S(C)(=O)=O)[C@H]2CCN(S(=O)(=O)CCCN3CCCCC3)[C@H]12` (relative stereo) [Example 9, rel-(3R,3aR,6aS)-1-Methanesulfonyl-4-(3-piperidin-1-yl-propane-1-sulfonyl)-3-propyl-hexahydro-pyrrolo[3,2-b]pyrrol-2-one], the 50% inhibitory concentration (IC50) is 54 nM.
Turning to `CCC[C@H]1C(=O)N(S(C)(=O)=O)[C@H]2CCN(S(=O)(=O)c3ccc(N(C)C)cc3)[C@H]12` (relative stereo) [Example 221, rel-(3R, 3aR,6aS)-4-[4-Dimethylamino-benzenesufonyl)-1-methanesulfonyl-3-propyl-hexahydro-pyrrolo[3,2-b]pyrrol-2-one], the IC50 is 27 nM.

What is called IC50 is the concentration needed to halve the response being measured.
